The target of one data set is IRAK4 (Homo sapiens (Human), UniProt Q9NWZ3). As to the kind of experiment: IRAK4 Inhibition Assay. The data set is classed as biochemical. As to conditions: ATP 500 μM; IRAK4 0.6 nM. Summed up: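 Enzyme 0.6 nM, ATP 500 μM, FL-peptide 1.5 μM, DMSO 1.6%; HEPES pH 7.2/MgCl2/Brij 35/DTT buffer. RT, 60 min, EDTA stop. Mobility-shift product/substrate ratio; % inhib vs no-enzyme and vehicle controls.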

A short description of data set [1]: Caco-2 Permeability Assay. The data set is classed as in vitro ADME. As to conditions: human, Caco-2, test compound 3 μM. The method, boiled down:
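Bidirectional permeability measured over 2 h at 37° C, compound dosed at 3 μM in the donor compartment (apical for absorptive, basolateral for secretive) with plain buffer as receiver.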
A general note: Passage across Caco-2 layers is used to estimate intestinal permeability.

Data set [2] concerns Human whole blood stimulated with a TLR2 agonist (lipoteichoic acid), IL-6 levels. The data set is described as follows: IRAK4 Whole Blood Assay. The data set is classed as cell-based. The note with it: Homo sapiens, lipoteichoic acid 10 μg/mL. The method, boiled down:
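ACD-A-anticoagulated human whole blood was preincubated with compounds for 60 min at 37 °C under 5% CO2. It was then stimulated with 10 μg/mL lipoteichoic acid (final) in RPMI for 5 h. IL-6 in plasma supernatants was measured by flow cytometry bead assay.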

IRAK4, sequence (Q9NWZ3 whole entry, species assumed): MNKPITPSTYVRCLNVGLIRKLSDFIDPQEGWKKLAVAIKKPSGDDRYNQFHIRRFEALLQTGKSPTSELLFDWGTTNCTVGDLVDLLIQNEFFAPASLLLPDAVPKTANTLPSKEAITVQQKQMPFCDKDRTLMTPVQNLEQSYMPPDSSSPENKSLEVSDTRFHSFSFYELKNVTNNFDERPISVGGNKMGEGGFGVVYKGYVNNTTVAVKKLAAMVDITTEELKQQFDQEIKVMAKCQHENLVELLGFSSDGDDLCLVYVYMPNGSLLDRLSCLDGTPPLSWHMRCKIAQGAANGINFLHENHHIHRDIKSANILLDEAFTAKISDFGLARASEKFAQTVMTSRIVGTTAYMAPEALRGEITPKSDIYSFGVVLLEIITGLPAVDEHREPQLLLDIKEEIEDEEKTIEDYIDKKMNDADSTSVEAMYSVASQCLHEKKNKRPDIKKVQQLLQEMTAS

Broadly, the IC50 is the midpoint of a concentration-inhibition curve. The term Papp denotes the rate of passage across a membrane or cell layer, normalised by area and donor concentration. The EC50 is the concentration that produces a half-maximal response. Higher therefore signals weaker potency. `CCCNc1cc(-n2ncc3cc(C#N)cnc32)ncc1-n1cc(CCC(C)(C)O)nn1` [Example 389, 1-(5-(4-(3-hydroxy-3-methylbutyl)-1H-1,2,3-triazol-1-yl)-4-(propylamino)pyridin-2-yl)-1H-pyrazolo[3,4-b]pyridine-5-carbonitrile]: the half-maximal inhibitory concentration (IC50) at IRAK4 came out at 14 nM. In data set [1], this molecule displayed an apparent permeability coefficient (Papp) at 2 h, 3 µM of 30.2 ×10⁻⁶ cm/s. The molecule further displayed a concentration giving a half-maximal response (EC50) in data set [2] of 310 nM.
For `CC(C)Nc1cc(-n2ncc3cc(C#N)cnc32)ncc1-n1cc(CCC(C)(C)O)cn1` [Example 390, 1-(5-(4-(3-hydroxy-3-methylbutyl)-1H-pyrazol-1-yl)-4-(isopropylamino)pyridin-2-yl)-1H-pyrazolo[3,4-b]pyridine-5-carbonitrile], the half-maximal inhibitory concentration (IC50) at IRAK4 was found to be 8 nM. Moreover, the Papp at 2 h, 3 µM in data set [1] was determined as 37.1 ×10⁻⁶ cm/s. The molecule further showed an EC50 in data set [2] of 270 nM.
Regarding `CC(C)Nc1cc(-n2ncc3cc(C#N)cnc32)ncc1-c1cn([C@H]2CC[C@H](N)CC2)nn1` [Example 392, 1-(5-(1-((1r,4r)-4-aminocyclohexyl)-1H-1,2,3-triazol-4-yl)-4-(isopropylamino)pyridin-2-yl)-1H-pyrazolo[3,4-b]pyridine-5-carbonitrile], the IC50 on IRAK4 worked out at 3 nM. This molecule also displayed a Papp at 2 h, 3 µM in data set [1] of less than 1.5 ×10⁻⁶ cm/s. In data set [2], this molecule gave an EC50 of 440 nM.
The matching figures for `COC(=O)N[C@H]1CC[C@H](n2cc(-c3cnc(-n4ncc5cc(C#N)cnc54)cc3NC(C)C)nn2)CC1` [Example 393, methyl ((1r,4r)-4-(4-(6-(5-cyano-1H-pyrazolo[3,4-b]pyridin-1-yl)-4-(isopropylamino)pyridin-3-yl)-1H-1,2,3-triazol-1-yl)cyclohexyl)carbamate]: 2 nM, 10.6 ×10⁻⁶ cm/s and 330 nM.
The corresponding values for `CC(C)Nc1cc(-n2ncc3cc(C#N)cnc32)ncc1-c1cn([C@H]2CC[C@H](NCC(F)F)CC2)nn1` [Example 394, 1-(5-(1-((1r,4r)-4-((2,2-difluoroethyl)amino)cyclohexyl)-1H-1,2,3-triazol-4-yl)-4-(isopropylamino)pyridin-2-yl)-1H-pyrazolo[3,4-b]pyridine-5-carbonitrile] are 2 nM, 9.1 ×10⁻⁶ cm/s and 250 nM.
The matching figures for `CCOC(=O)N[C@H]1CC[C@H](n2cc(-c3cnc(-n4ncc5cc(C#N)cnc54)cc3NC(C)C)nn2)CC1` [Example 395, ethyl ((1r,4r)-4-(4-(6-(5-cyano-1H-pyrazolo[3,4-b]pyridin-1-yl)-4-(isopropylamino)pyridin-3-yl)-1H-1,2,3-triazol-1-yl)cyclohexyl)carbamate]: 1 nM, 9.4 ×10⁻⁶ cm/s and 290 nM.
On to `CC(=O)N1CC(c2cc(-c3cnc(-n4ncc5cc(C#N)cnc54)cc3NC(C)C)on2)C1` [Example 398, 1-(5-(3-(1-acetylazetidin-3-yl)isoxazol-5-yl)-4-(isopropylamino)pyridin-2-yl)-1H-pyrazolo[3,4-b]pyridine-5-carbonitrile], for which the concentration for half-maximal inhibition (IC50) at IRAK4 turned out to be 4 nM. The molecule further yielded an apparent permeability (Papp) at 2 h, 3 µM in data set [1] of 6.9 ×10⁻⁶ cm/s. The molecule further returned a 50% effective concentration (EC50) in data set [2] of 300 nM.
As to `CC(C)Nc1cc(-n2ncc3cc(C#N)cnc32)ncc1-c1cc(C(CO)CO)no1` [Example 399, 1-(5-(3-(1,3-dihydroxypropan-2-yl)isoxazol-5-yl)-4-(isopropylamino)pyridin-2-yl)-1H-pyrazolo[3,4-b]pyridine-5-carbonitrile], the IC50 on IRAK4 came out at 10 nM. Moreover, the Papp at 2 h, 3 µM in data set [1] was less than 1.5 ×10⁻⁶ cm/s. Besides, a half-maximal effect in data set [2] (EC50) was put at 140 nM.
For the molecule `COC(=O)N1CC(c2cc(-c3cnc(-n4ncc5cc(C#N)cnc54)cc3NC(C)C)on2)C1` [Example 401, methyl 3-(5-(6-(5-cyano-1H-pyrazolo[3,4-b]pyridin-1-yl)-4-(isopropylamino)pyridin-3-yl)isoxazol-3-yl)azetidine-1-carboxylate], at IRAK4, the IC50 is 4 nM. In addition, the apparent permeability coefficient (Papp) at 2 h, 3 µM in data set [1] is 28 ×10⁻⁶ cm/s. The molecule further displayed a half-maximal effective concentration (EC50) in data set [2] of 380 nM.
In the case of `CC(=O)N1CCC(c2cc(-c3cnc(-n4ncc5cc(C#N)cnc54)cc3NC(C)C)on2)CC1` [Example 402, 1-(5-(3-(1-acetylpiperidin-4-yl)isoxazol-5-yl)-4-(isopropylamino)pyridin-2-yl)-1H-pyrazolo[3,4-b]pyridine-5-carbonitrile], the IC50 on IRAK4 came to 2 nM. This molecule also gave an apparent permeability coefficient (Papp) at 2 h, 3 µM in data set [1] of 19.2 ×10⁻⁶ cm/s. In addition, in data set [2], the concentration for a half-maximal effect (EC50) worked out at 250 nM.
As to `CC(C)Nc1cc(-n2ncc3cc(C#N)cnc32)ncc1-c1cc(C2CCNCC2)no1` [Example 403, 1-(4-(isopropylamino)-5-(3-(piperidin-4-yl)isoxazol-5-yl)pyridin-2-yl)-1H-pyrazolo[3,4-b]pyridine-5-carbonitrile], the half-maximal inhibitory concentration (IC50) at IRAK4 was determined as 4 nM. In addition, the Papp at 2 h, 3 µM in data set [1] is less than 1.5 ×10⁻⁶ cm/s. Moreover, in data set [2], the half-maximal effective concentration (EC50) worked out at 230 nM.
The corresponding values for `CC(C)Nc1cc(-n2ncc3cc(C#N)cnc32)ncc1-c1cc([C@H]2CCNC2)no1` [Example 404, (S)-1-(4-(isopropylamino)-5-(3-(pyrrolidin-3-yl)isoxazol-5-yl)pyridin-2-yl)-1H-pyrazolo[3,4-b]pyridine-5-carbonitrile] are 3 nM, less than 1.5 ×10⁻⁶ cm/s and 230 nM.
The corresponding values for `CC(=O)N1CC[C@H](c2cc(-c3cnc(-n4ncc5cc(C#N)cnc54)cc3NC(C)C)on2)C1` [Example 405, (S)-1-(5-(3-(1-acetylpyrrolidin-3-yl)isoxazol-5-yl)-4-(isopropylamino)pyridin-2-yl)-1H-pyrazolo[3,4-b]pyridine-5-carbonitrile] are 4 nM, 12.5 ×10⁻⁶ cm/s and 260 nM.
As for `CC(=O)N1CC[C@@H](c2cc(-c3cnc(-n4ncc5cc(C#N)cnc54)cc3NC(C)C)on2)C1` [Example 406, (R)-1-(5-(3-(1-acetylpyrrolidin-3-yl)isoxazol-5-yl)-4-(isopropylamino)pyridin-2-yl)-1H-pyrazolo [3,4-b]pyridine-5-carbonitrile], the IC50 at IRAK4 was found to be 3 nM. The apparent permeability (Papp) at 2 h, 3 µM in data set [1] stood at 16.3 ×10⁻⁶ cm/s. In addition, a half-maximal response in data set [2] (EC50) required 470 nM.
The corresponding values for `CC(=O)N1CCC[C@@H](c2cc(-c3cnc(-n4ncc5cc(C#N)cnc54)cc3NC(C)C)on2)C1` [Example 407, (R)-1-(5-(3-(1-acetylpiperidin-3-yl)isoxazol-5-yl)-4-(isopropylamino)pyridin-2-yl)-1H-pyrazolo[3,4-b]pyridine-5-carbonitrile] are 1 nM, 25 ×10⁻⁶ cm/s and 290 nM.
The corresponding values for `CC(C)Nc1cc(-n2ncc3cc(C#N)cnc32)ncc1-c1cc(C2CCCCN2)no1` [Example 412, (S)-1-(4-(isopropylamino)-5-(3-(piperidin-2-yl)isoxazol-5-yl)pyridin-2-yl)-1H-pyrazolo[3,4-b]pyridine-5-carbonitrile] are 4 nM, 13.9 ×10⁻⁶ cm/s and 400 nM.
Regarding `CNCCCc1cc(-c2cnc(-n3ncc4cc(C#N)cnc43)cc2NC(C)C)on1` [Example 414, 1-(4-(isopropylamino)-5-(3-(3-(methylamino)propyl)isoxazol-5-yl)pyridin-2-yl)-1H-pyrazolo[3,4-b]pyridine-5-carbonitrile], the 50% inhibitory concentration (IC50) at IRAK4 turned out to be 7 nM. In data set [1], this molecule gave an apparent permeability (Papp) at 2 h, 3 µM of less than 1.5 ×10⁻⁶ cm/s. Also, a half-maximal response in data set [2] (EC50) required 250 nM.

The record behind these values is patent US10294229B2, “Heteroaryl substituted aminopyridine compounds” (BRISTOL-MYERS SQUIBB COMPANY, priority 2015, dated 2019).
